Laboratory results taken from EP0083204A2, “2-Aminophenol derivatives and process for their preparation” (ONO PHARMACEUTICAL CO., LTD., priority 1981, dated 1983).
Counter-ions that a name gives are not always drawn.

Tests used:
5-lipoxygenase [1] = molecular target: T1, 5-lipoxygenase (Cavia porcellus, UniProt A0A286X958); assay: assay system evaluating only the inhibitory activity on 5-lipoxygenase (105,000 x g supernate of sonicated polymorphonuclear leukocytes); type: biochemical; conditions: supernate of sonicated guinea pig polymorphonuclear leukocytes, 30°C, 5 minutes, 1 mM calcium chloride; production of 5-HETE, 5,12-diHETE and leukotriene B; read-out: concentrations required to produce 50% inhibitions on 5-lipoxygenase
T1 construct: The supernate was used as an enzyme throughout this work; from tissue; host or cells: 105,000 x g supernatant of sonicated, casein-elicited guinea pig polymorphonuclear leukocytes
T1 sequence (A0A286X958 1-674): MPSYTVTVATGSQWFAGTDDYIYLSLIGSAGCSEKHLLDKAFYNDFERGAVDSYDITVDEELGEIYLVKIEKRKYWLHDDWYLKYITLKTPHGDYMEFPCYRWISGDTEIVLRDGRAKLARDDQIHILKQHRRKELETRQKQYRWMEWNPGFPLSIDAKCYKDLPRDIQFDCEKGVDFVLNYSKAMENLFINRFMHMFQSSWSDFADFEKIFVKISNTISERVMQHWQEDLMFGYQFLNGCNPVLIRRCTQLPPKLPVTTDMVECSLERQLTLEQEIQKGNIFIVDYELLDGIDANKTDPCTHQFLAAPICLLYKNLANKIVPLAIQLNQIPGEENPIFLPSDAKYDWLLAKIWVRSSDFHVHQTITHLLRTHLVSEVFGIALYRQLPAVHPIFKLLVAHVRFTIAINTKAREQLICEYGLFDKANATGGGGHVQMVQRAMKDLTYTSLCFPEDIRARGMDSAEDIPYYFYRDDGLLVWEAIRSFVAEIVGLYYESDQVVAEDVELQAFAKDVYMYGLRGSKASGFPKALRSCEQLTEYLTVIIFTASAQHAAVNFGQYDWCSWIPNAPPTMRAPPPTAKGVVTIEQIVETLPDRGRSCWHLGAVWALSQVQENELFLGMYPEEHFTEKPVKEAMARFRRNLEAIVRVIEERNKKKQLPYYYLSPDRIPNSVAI
Protocol: The experiments for evaluating only the inhibitory activity on 5-lipoxygenase were carried out as follows: Guinea pig was treated by casein and harvested polymorphonuclear leukocytes from cavity were sonicated, followed by the centrifugation at 105,000 x g. The supernate was used as an enzyme throughout this work. The supernate (100 - 500 ug of protein) was incubated for 5 minutes at 30°C with [^14C] arachidonic acid and 1 mM calcium chloride in the presence or in the absence of test compound. The reaction was terminated by the addition of ether. Ether extract was separated by thin layer chromatography using silica gel plates to observe production of 5-HETE, 5,12-diHETE and leukotriene B. In this assay system, the concentrations for 50% inhibitions on 5- lipoxygenase were evaluated by using the concentrations of compounds of the present invention required 50% inhibitions on the production of 5-HETE, 5,12-diHETE and leukotrien B.

mice = assay: acute toxicity by intravenous administration; type: in vivo, mouse; conditions: intravenously administered to tail vein in ten mice at the dose of 30 mg/kg
Protocol: On the other hand, all extent of the compounds of the present invention were confirmed that their acute toxicities were more than 30 mg/kg by intravenous administration. Therefore, 2-aminophenol derivatives of the present invention may be considered to be sufficiently safe and suitable for medical use.

5-lipoxygenase [2] = molecular target: T1, 5-lipoxygenase; assay: standard assay system using polymorphonuclear leukocytes (production of 5-HETE from [14C] arachidonic acid); type: cell-based; conditions: intact polymorphonuclear leukocytes from guinea pig, 4 x 10^7 cells, 37°C, 5 minutes, read-out: concentrations for 50% inhibitions on 5-lipoxygenase
Protocol: (§1) For example, in standard assay system using polymorphonuclear leukocytes from guinea pig (details of experiments were described hereafter), (a) the concentrations of 2-amino-4-(4-methylphenylthio)phenol hydrochloride for 50% inhibitions on 5-lipoxygenase and on cyclooxygenase were 0.2 µM and 0.3 µM, respectively, (b) the concentrations of 2-amino-4-phenylthiophenol hydrochloride for 50% inhibitions on 5- lipoxygenase and on cyclooxygenase were 0.1 µM and 0.3 uM, respectively and (c) the concentrations of 2-amino-4-(4-chlorophenylthio)phenol hydrochloride for 50% inhibitions on 5-lipoxygenase and on cyclooxygenase were 0.5 µM and 0.3 µM, respectively. Therefore, it is comfirmed that these compounds (a), (b) and (c) inhibit both 5-lipoxygenase and cyclooxygenase at the same time at very low concentrations.
(§2) The experiments for screening using polymorphonuclear leukocytes were carried out as follows: The reaction mixture (0.1 ml) containing 5 µmole of potassium phosphate at pH 7.4, 0.1 µmole of calcium chloride, polymorphonuclear leukocytes prepared from guinea pigs (4 x 10^7 cells) and test compound, was preincubated for 5 minutes at 37°C. The reaction was started by the addition of [^14C] arachidonic acid ([…] dpm, 1.8 nmole), followed by the incubation at 37°C for 5 minutes. The reaction was terminated by the addition of 0.3 ml of a mixture of ether/ methanol/lM citric acid (30/4/1). The organic phase (20 µl) was applied to silica gel plate. Thin layer chromatography was performed to separate each product with solvent system of ether/petroleum ether/acetic acid (85/15/0.1).
(§3) Activity of 5-lipoxygenase and cyclooxygenase were calculated from the measurements of the production of 5-HETE, and 12L-hydroxy-5,8,10-[…] acid (i.e. HHT) or thromboxane B2 (i.e. TXB2), respectively [it has been known that HHT and TXB2 are the last products of the system concerning cyclooxygenase in the arachidonate cascade]. […]

cyclooxygenase = assay: standard assay system using polymorphonuclear leukocytes (production of HHT or TXB2 from [14C] arachidonic acid); type: cell-based; conditions: intact polymorphonuclear leukocytes from guinea pig, 4 x 10^7 cells, 37°C, 5 minutes, read-out: concentrations for 50% inhibitions on cyclooxygenase
Protocol: as §1, §2, §3

Row | Compound | IC50 (5-lipoxygenase [1]) | mortality (mice) | IC50 (5-lipoxygenase [2]) | IC50 (cyclooxygenase)
1 | Cc1cc(C)c(Sc2ccc(O)c(N)c2)c(C)c1 [2-Amino-4-(2,4,6-trimethylphenylthio)phenol hydrochloride] | 480 nM | – | – | –
2 | Cl.Nc1cc(-c2nc3ccccc3s2)ccc1O [2-Amino-4-(2-benzothiazolyl)phenol hydrochloride] | 230 nM | no mouse was dead | – | –
3 | Cc1ccc(Sc2ccc(O)c(N)c2)cc1.Cl [2-Amino-4-(4-methylphenylthio)phenol hydrochloride] | 200 nM | no mouse was dead | 200 nM | 300 nM
4 | CC(C)(C)c1ccc(Sc2ccc(O)c(N)c2)cc1 [2-Amino-4-(4-tert-butylphenylthio)phenol hydrochloride] | 320 nM | – | – | –
5 | Nc1cc(C#Cc2ccccc2)ccc1O [2-amino-4-phenylethynylphenol, 2-Amino-4-phenylethynylphenol] | 690 nM | no mouse was dead | – | –
6 | Nc1cc(Sc2ccccc2)ccc1O [2-amino-4-phenylthiophenol hydrochloride, 2-Amino-4-phenylthiophenol hydrochloride] | 310 nM | no mouse was dead | 100 nM | 300 nM

The next lines start with results.

Row | IC50 (5-lipoxygenase [1]) | Compound | mortality (mice) | IC50 (5-lipoxygenase [2]) | IC50 (cyclooxygenase)
7 | 1500 nM | Nc1cc(Sc2ccc(O)c(N)c2)ccc1O [2-Amino-4-(3-amino-4-hydroxyphenylthio)phenol] | – | – | –
8 | 300 nM | Nc1cc(Sc2ccc(Cl)cc2)ccc1O [2-Amino-4-(4-chlorophenylthio)phenol hydrochloride] | – | 500 nM | 300 nM
9 | 460 nM | Nc1cc(Sc2ccc(O)cc2)ccc1O [2-amino-4-(4-hydroxyphenylthio)phenol, 2-Amino-4-(4-hydroxyphenylthio)phenol] | – | – | –
10 | 11000 nM | Nc1cc([S+]([O-])c2ccccc2)ccc1O (stereo not drawn) [2-amino-4-benzenesulfinylphenol, 2-Amino-4-benzenesulfinylphenol] | – | – | –
11 | 18000 nM | Nc1cc(NC(=O)c2ccccc2)ccc1O [N-(3-Amino-4-hydroxyphenyl)benzamide hydrochloride] | – | – | –
